Assay results published in ChEMBL document CHEMBL5226347, “Discovery of Chromane-6-Sulfonamide Derivative as a Potent, Selective, and Orally Available Novel Retinoic Acid Receptor-Related Orphan Receptor γt Inverse Agonist” (J Med Chem, 2021).
≈ marks a conversion by molar mass, not a printed value.

Assays:
[1] = Lipophilicity, log D of the compound at pH 7.4; assay type: physicochemical; details: buffer
[2] = biological target: T1, Nuclear receptor ROR-gamma (Homo sapiens, UniProt P51449); assay: Inhibition of RORgammat in human Jurkat cells assessed as inhibition of RORgammat transcriptional activity incubated for 10 mins by luciferase reporter gene assay; assay type: cell-based
T1 sequence (P51449 whole entry): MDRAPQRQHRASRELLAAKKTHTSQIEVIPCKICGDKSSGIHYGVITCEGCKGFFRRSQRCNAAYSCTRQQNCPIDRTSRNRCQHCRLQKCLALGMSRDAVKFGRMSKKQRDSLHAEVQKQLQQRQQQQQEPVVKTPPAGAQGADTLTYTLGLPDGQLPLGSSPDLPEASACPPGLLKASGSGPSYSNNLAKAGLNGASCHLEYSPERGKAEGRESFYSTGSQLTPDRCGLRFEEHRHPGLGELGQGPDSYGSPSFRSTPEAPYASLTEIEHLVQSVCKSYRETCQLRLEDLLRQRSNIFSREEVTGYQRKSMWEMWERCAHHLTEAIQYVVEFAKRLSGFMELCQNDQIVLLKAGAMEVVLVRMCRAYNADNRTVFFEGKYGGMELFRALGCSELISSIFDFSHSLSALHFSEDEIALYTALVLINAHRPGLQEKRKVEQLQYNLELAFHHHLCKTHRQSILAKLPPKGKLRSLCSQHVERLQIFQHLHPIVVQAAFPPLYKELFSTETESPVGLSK

[3] = biological target: T1, Nuclear receptor ROR-gamma; assay: Displacement of BODIPY from APC-labelled human RORgammat LBD incubated for 15 mins by LANCE detection analysis
[4] = Metabolic stability in human liver microsomes assessed as half life incubated for 5 to 30 mins by HPLC-MS/MS analysis; assay type: ADME, Microsome; details: time 5-30 min; for t1/2: microsomes
[5] = Metabolic stability in human liver assessed as intrinsic clearance incubated for 5 to 30 mins by HPLC-MS/MS analysis; assay type: ADME, tissue-based; details: liver (preparation not stated), time 5-30 min, read-out: CLH
[6] = Metabolic stability in human liver microsomes assessed as parent compound remaining measured at 60 mins by HPLC-MS/MS analysis; assay type: ADME, Microsome; details: 1 h
Mus musculus [7] = assay: Antiinflammatory activity against imiquimod-induced Balb/c mouse skin inflammation model assessed as inhibition of IL-17A level at 20 mg/kg, po measured for 13 days; assay type: functional; parameters: scale not given: the % may be the effect or the level left; details: time 13 day
[8] = Solubility of compound in aqueous buffer at pH 7.4; assay type: physicochemical
Mus musculus [9] = assay: Antiinflammatory activity against imiquimod-induced Balb/c mouse skin inflammation model assessed as inhibition of IL-6 level at 20 mg/kg, po measured for 13 days; assay type: functional; parameters: scale not given: the % may be the effect or the level left; details: time 13 day
Mus musculus [10] = assay: Antiinflammatory activity against imiquimod-induced Balb/c mouse skin inflammation model assessed as reduction in severity index score at 20 mg/kg, po BID for 13 days; assay type: functional; parameters: scale not given: the % may be the effect or the level left; details: time 13 day

CCc1ccc(N(CC(C)C)S(=O)(=O)c2ccc3c(c2)C(O)CC(C2CCN(C(=O)C4CCCC4)CC2)O3)cc1 (centres undefined)
logD [1]: 5.04

Cc1ccc(N(CC(C)C)S(=O)(=O)c2ccc3c(c2)C(O)CC(C2CCOCC2)O3)c(C)c1 (centres undefined)
logD [1]: 4.19

CCc1ccc(N(CC2CCC2)S(=O)(=O)c2ccc3c(c2)C(O)CC(C2CCOCC2)O3)cc1 (centres undefined)
logD [1]: 4.01

CCc1ccc(N(CC(C)C)S(=O)(=O)c2ccc3c(c2)C(OC2CCCCC2)CC(C2CCOCC2)O3)cc1 (centres undefined)
logD [1]: 6.28

CC(C)CN(c1ccccc1F)S(=O)(=O)c1ccc2c(c1)C(O)CC(C1CCOCC1)O2 (centres undefined)
logD [1]: 3.39

CC(C)CN(c1cccc(F)c1)S(=O)(=O)c1ccc2c(c1)C(O)CC(C1CCOCC1)O2 (centres undefined)
logD [1]: 3.39

CCc1ccc(N(CC(C)C)S(=O)(=O)c2ccc3c(c2)CCC3OC2CCOCC2)cc1 (centres undefined)
logD [1]: 4.96

O=S(=O)(Nc1ccccc1C(F)(F)F)c1ccc2c(c1)C(O)CC(C1CCOCC1)O2 (centres undefined)
IC50 [2]: > 10 µM
logD [1]: 2.41
IC50 [3]: > 10 µM

CCc1ccc(N(CC(C)C)S(=O)(=O)c2ccc(OCC3CCOCC3)c3c2CCC3O)cc1 (centres undefined)
logD [1]: 4.55

CC(C)CN(c1ccc(F)cc1F)S(=O)(=O)c1ccc2c(c1)C(O)CC(C1CCOCC1)O2 (centres undefined)
logD [1]: 3.53

CCc1ccc(N(CC(C)C)S(=O)(=O)c2ccc3c(c2)C(OC)CC(C2CCOCC2)O3)cc1 (centres undefined)
logD [1]: 4.69

CC(C)CN(c1ccc(N(C)C)cc1)S(=O)(=O)c1ccc2c(c1)C(O)CC(C1CCOCC1)O2 (centres undefined)
logD [1]: 3.51

CCc1ccc(N(CC(C)C)S(=O)(=O)c2ccc3c(c2)C(O)CC(CC2CCOCC2)O3)cc1 (centres undefined)
logD [1]: 4.44

CC(C)CN(c1cc2ccccc2s1)S(=O)(=O)c1ccc2c(c1)C(O)CC(C1CCOCC1)O2 (centres undefined)
logD [1]: 3.92
t1/2 [4]: 25.2 min
CLint scaled [5]: 53.7 mL/min/kg
Stability [6]: 28.5%

CCc1ccc(N(CC(C)C)S(=O)(=O)c2ccc3c(c2)C(C)CC(C2CCOCC2)O3)cc1 (centres undefined)
logD [1]: 5.71

CCS(=O)(=O)c1ccc(CN(CC(C)C)S(=O)(=O)c2ccc3c(c2)C(O)CC(C2CCOCC2)O3)nc1 (centres undefined)
IC50 [2]: > 10 µM
logD [1]: 1.42
IC50 [3]: > 10 µM

CCc1ccc(N(CC(F)(F)F)S(=O)(=O)c2ccc3c(c2)C(O)CC(C2CCOCC2)O3)cc1 (centres undefined)
logD [1]: 3.88

CCc1ccc(N(CC(C)C)S(=O)(=O)c2ccc3c(c2)C(C)(O)CC(C2CCOCC2)O3)cc1 (centres undefined)
logD [1]: 4.19

CCc1ccc(N(CC(C)C)S(=O)(=O)c2ccc3c(c2)CCC(C2CCOCC2)O3)cc1 (centres undefined)
logD [1]: 5.38

CCc1ccc(N(CC(C)C)S(=O)(=O)c2ccc3nc(C4CCOCC4)cc(O)c3c2)cc1
logD [1]: 4.97

CCc1ccc(N(CC(C)C)S(=O)(=O)c2ccc(OCC3CCOCC3)c(CO)c2)cc1 [GSK2981278]
Activity (Mus musculus [7]): 82.2%
solubility [8]: 2.12 µg/mL (≈ 4.59 µM)
logD [1]: 4.1
t1/2 [4]: 0.8 min
CLint scaled [5]: 1610 mL/min/kg
Activity (Mus musculus [9]): 59.4%
Stability [6]: 0.2%
Activity (Mus musculus [10]): 61.5%

O=S(=O)(c1ccc2c(c1)C(O)CC(C1CCOCC1)O2)N1CCC(c2ccccc2)CC1 (centres undefined)
IC50 [2]: > 10 µM
logD [1]: 2.63
IC50 [3]: > 10 µM

CC(C)CN(c1ccc(F)cc1)S(=O)(=O)c1ccc2c(c1)C(O)CC(C1CCOCC1)O2 (centres undefined)
logD [1]: 3.39

Cc1cc(C(O)(C(F)(F)F)C(F)(F)F)ccc1N(CC(C)C)S(=O)(=O)c1ccc2c(c1)C(O)CC(C1CCOCC1)O2 (centres undefined)
logD [1]: 4.37

CC(C)CN(Cc1ccccc1C(F)(F)F)S(=O)(=O)c1ccc2c(c1)C(O)CC(C1CCOCC1)O2 (centres undefined)
logD [1]: 4.23

CCc1ccc(N(CC(C)C)S(=O)(=O)c2ccc(OCC3CCOCC3)c3c2CCCC3O)cc1 (centres undefined)
logD [1]: 4.95

CCc1ccc(N(CC(C)C)S(=O)(=O)c2ccc3c(c2)C(O)CC(C2CCNCC2)O3)cc1 (centres undefined)
logD [1]: 1.04

CCc1ccc2c(c1)CC(C)CN2S(=O)(=O)c1ccc2c(c1)C(O)CC(C1CCOCC1)O2 (centres undefined)
logD [1]: 3.68

CCc1ccc(N(Cc2ccccc2)S(=O)(=O)c2ccc3c(c2)C(O)CC(C2CCOCC2)O3)cc1 (centres undefined)
logD [1]: 4.68

Cc1ccc(N(C2CCC2)S(=O)(=O)c2ccc3c(c2)C(O)CC(C2CCOCC2)O3)c(C)c1 (centres undefined)
logD [1]: 3.77

CCc1ccc(N(CC(C)C)S(=O)(=O)c2ccc(OCC3CCOCC3)c(CN)c2)cc1
logD [1]: 3.25

CCc1ccc(N(CC(C)C)S(=O)(=O)c2ccc3c(c2)C(N)CC(C2CCOCC2)O3)cc1 (centres undefined)
logD [1]: 3.08

CC(C)CN(c1ccc(C#N)cc1)S(=O)(=O)c1ccc2c(c1)C(O)CC(C1CCOCC1)O2 (centres undefined)
logD [1]: 3.07
t1/2 [4]: 0.8 min
CLint scaled [5]: 1520 mL/min/kg
Stability [6]: 0.3%

CCc1ccc(N(C2COC2)S(=O)(=O)c2ccc3c(c2)C(O)CC(C2CCOCC2)O3)cc1 (centres undefined)
logD [1]: 2.63

CCc1ccc(N(CC(C)C)S(=O)(=O)c2ccc3c(c2)C(O)CC(C2CCN(C)CC2)O3)cc1 (centres undefined)
logD [1]: 2.67

CC(C)CN(c1ccccc1C(F)(F)F)S(=O)(=O)c1ccc2c(c1)C(O)CC(C1CCOCC1)O2 (centres undefined)
logD [1]: 4.14

CCc1ccc(NS(=O)(=O)c2ccc3c(c2)C(O)CC(C2CCOCC2)O3)cc1 (centres undefined)
logD [1]: 2.59

CCc1ccc(N(CC(C)C)S(=O)(=O)c2ccc3c(c2)C(O)CC(C2CCOCC2)O3)cc1 (centres undefined)
logD [1]: 4.12
half-life ([4]; liver microsomes): 222 min
CLint scaled [5]: 330 mL/min/kg

O=S(=O)(c1ccc2c(c1)C(O)CC(C1CCOCC1)O2)N1CCCC1c1ccccc1C(F)(F)F (centres undefined)
logD [1]: 3.41
t1/2 [4]: 7.6 min
CLint scaled [5]: 172 mL/min/kg
Stability [6]: 5.2%

CCc1ccc(N(CC(C)C)S(=O)(=O)c2ccc3c(c2)C(O)C[C@@H](C2CCOCC2)O3)cc1 (some centres undefined)
logD [1]: 4.12

CCc1ccc(N(CC(C)C)S(=O)(=O)c2ccc3c(c2)C(O)C[C@H](C2CCOCC2)O3)cc1 (some centres undefined)
logD [1]: 4.12

CCc1ccc(N(CC(C)C)S(=O)(=O)c2ccc3c(c2)C(O)CC(C2CCN(S(C)(=O)=O)CC2)O3)cc1 (centres undefined)
logD [1]: 3.22

CCc1ccc(N(CC(C)C)S(=O)(=O)c2ccc3c(c2)C=CC(C2CCOCC2)O3)cc1 (centres undefined)
logD [1]: 5.52

CC(C)CN(C1CCc2ccc(F)cc21)S(=O)(=O)c1ccc2c(c1)C(O)CC(C1CCOCC1)O2 (centres undefined)
logD [1]: 3.94

CCc1ccc(N(CC(C)C)S(=O)(=O)c2ccc3c(c2)C(O)CC(C(C)C2CCOCC2)O3)cc1 (centres undefined)
logD [1]: 5.04
